Key:
synaptophysin = assay: Synaptophysin ELISA of protein isolated from rat brain; format: in vivo; details: 21 days after infusion; 1 way ANOVA p>0.05
Experimental: A) Immunofluorescent microscopy of fixed rat brain for neurons (NeuN) and glia (GFAP) 21 days after acute striatal infusion of 5 μl of either aCSF (control), F127-aCSF or F127-PAN. B) Synaptophysin ELISA of protein isolated from rat brain 21 days after infusion comparing F127-aCSF, F127-PAN and Panobinostat in DMSO against aCSF and untreated controls. […] (1 way ANOVA p>0.05).

SF7761 glioma cell line = assay: MTT assay, SF7761; format: cell-based, human
Experimental: (§1) Two independent glioma cell lines (A) SF7761 and (B) SF8628 were dosed with sodium valproate for 72 h, then subjected to an MTT assay to assess the effect of the drug on proliferation of glioma cells. Results are expressed as a % relative to untreated control. […] Two glioma cell lines (A) SF7761 and (B) SF8628 were dosed with sodium valproate for 72 h, followed by 6 h of carboplatin, after which, the drug was washed out and given fresh sodium valproate. Proliferation was assessed by MTT assay, and results expressed as a % relative to the untreated control cells.

SF8628 glioma cell line = assay: MTT assay, SF8628; format: cell-based, human
Experimental: as §1

glioma cell line = assay: MTT assay, 6 h sequential dosing on two consecutive days; format: cell-based, human
Experimental: One glioma cell line thus far has been tested with (A) 6 h dosing of VPA repeated one two consecutive days, followed by assessment of proliferation by MTT.

[1] = test system: normal hippocampal neuronal and glial cells; assay: Toxicity in normal hippocampal cultures (B3 tubulin, GFAP staining); format: cell-based; details: 6 h dosing, assayed 72 h after
Experimental: Normal hippocampal cells were plated onto coverslips and grown for 72 h prior to dosing with sodium valproate to assess the toxicity of the drug against normal neuronal and glial cells. Cells were drugged with sodium valproate for 6 h, after which time the drug was washed off and fresh media added. Cells were further incubated for 72 h prior to fixing and staining with B3 tubulin (neuronal marker) and GFAP (glial cell marker) to determine to the toxicity of sodium valproate.

[2] = pre-conditioning with sodium valproate prior to carboplatin
[3] = sodium valproate 72 h, then 6 h carboplatin

| Compound | synaptophysin concentration against aCSF and untreated controls (synaptophysin) | cytotoxicity (proliferation, % relative to untreated control) (SF7761 glioma cell line; 72 h dosing) | combination index (CI) (SF7761 glioma cell line; [2]) | effect of pre-dosing on cytotoxicity of carboplatin (SF7761 glioma cell line; [3]) | cytotoxicity (proliferation, % relative to untreated control) (SF8628 glioma cell line; 72 h dosing) | combination index (CI) (SF8628 glioma cell line; [2]) | effect of pre-dosing on cytotoxicity of carboplatin (SF8628 glioma cell line; [3]) | cell viability, % relative to control (glioma cell line; 6 h dosing on two consecutive days) | cell viability, combined dosing with carboplatin (glioma cell line; carboplatin and sodium valproate 6 h on two consecutive days) | glial toxicity (GFAP) ([1]; 20 mM) | neuronal toxicity (B3 tubulin) [1] |
| --- | --- | --- | --- | --- | --- | --- | --- | --- | --- | --- | --- |
| Cc1[nH]c2ccccc2c1CCNCc1ccc(/C=C/C(=O)NO)cc1 [Panobinostat in DMSO, panobinostat] | No significant difference detected | – | – | – | – | – | – | – | – | – | – |
| CCCC(CCC)C(=O)[O-].[Na+] [sodium valproate] | – | causes cytotoxicity to glioma cells in a dose dependent manner | below 1 | potentiates the cytotoxicity of carboplatin | causes cytotoxicity to glioma cells in a dose dependent manner | below 1 | potentiates the cytotoxicity of carboplatin | dose dependent decrease in cell viability | greater decrease in cell viability compared with carboplatin alone | Some toxicity | minimal neuronal toxicity |

— US10278954B2, “Method of treating a CNS disorder using a water-soluble histone deacetylase inhibitor” (priority 2016, dated 2019)
